Source: ChEMBL document CHEMBL4033730, “Thiosemicarbazones as inhibitors of tyrosinase enzyme” (Bioorg Med Chem Lett, 2017)
Values belong to the molecule of their own block, whether it stands above or below them. Active and inactive are the calls of the source. No cut-off for these calls is given here.

Columns and labels:
Mushroom tyrosinase [1] = molecular target: T1, Mushroom tyrosinase (Agaricus bisporus, UniProt O42713+Q00024+C7FF04+C7FF05); experiment: Inhibition of Agaricus bisporus tyrosinase assessed as reduction in diphenolase activity by measuring L-DOPA oxidation after 30 mins
Mushroom tyrosinase [2] = molecular target: T1, Mushroom tyrosinase; experiment: Uncompetitive inhibition of Agaricus bisporus tyrosinase assessed as reduction in diphenolase activity by measuring L-DOPA oxidation at 1.6 mM after 30 mins by Lineweaver-Burk plot
[3] = molecular target: T2, Mushroom tyrosinase (Agaricus bisporus) (UniProt O42713+Q00024+C7FF04+C7FF05); experiment: Inhibition of Agaricus bisporus tyrosinase assessed as reduction in diphenolase activity by measuring L-DOPA oxidation at 1.6 mM after 0 to 70 mins by UV-visible specroscopy
Mushroom tyrosinase [4] = molecular target: T1, Mushroom tyrosinase; experiment: Competitive inhibition of Agaricus bisporus tyrosinase assessed as reduction in diphenolase activity by measuring L-DOPA oxidation at 1.6 mM after 30 mins by Lineweaver-Burk plot
Mushroom tyrosinase [5] = molecular target: T1, Mushroom tyrosinase; experiment: […] inhibition of Agaricus bisporus tyrosinase assessed as reduction in diphenolase activity by measuring L-DOPA oxidation at 1.6 mM after 30 mins by Lineweaver-Burk plot
[6] = molecular target: T2, Mushroom tyrosinase (Agaricus bisporus); experiment: Inhibition of Agaricus bisporus tyrosinase assessed as reduction in diphenolase activity by measuring L-DOPA oxidation at 2.67 mM after 30 mins
[7] = molecular target: T2, Mushroom tyrosinase (Agaricus bisporus); experiment: Inhibition of Agaricus bisporus tyrosinase assessed as reduction in diphenolase activity by measuring L-DOPA oxidation at 2.22 mM after 30 mins
[8] = molecular target: T2, Mushroom tyrosinase (Agaricus bisporus); experiment: Inhibition of Agaricus bisporus tyrosinase assessed as reduction in diphenolase activity by measuring L-DOPA oxidation at 1.78 mM after 30 mins
[9] = molecular target: T2, Mushroom tyrosinase (Agaricus bisporus); experiment: Inhibition of Agaricus bisporus tyrosinase assessed as reduction in diphenolase activity by measuring L-DOPA oxidation at 1.33 mM after 30 mins
[10] = molecular target: T2, Mushroom tyrosinase (Agaricus bisporus); experiment: Inhibition of Agaricus bisporus tyrosinase assessed as reduction in diphenolase activity by measuring L-DOPA oxidation at 0.89 mM after 30 mins
[11] = molecular target: T2, Mushroom tyrosinase (Agaricus bisporus); experiment: Inhibition of Agaricus bisporus tyrosinase assessed as reduction in diphenolase activity by measuring L-DOPA oxidation at 0.44 mM after 30 mins
[12] = molecular target: T2, Mushroom tyrosinase (Agaricus bisporus); experiment: Inhibition of Agaricus bisporus tyrosinase assessed as reduction in diphenolase activity by measuring L-DOPA oxidation at 0.29 mM after 30 mins
[13] = molecular target: T2, Mushroom tyrosinase (Agaricus bisporus); experiment: Inhibition of Agaricus bisporus tyrosinase assessed as reduction in diphenolase activity by measuring L-DOPA oxidation at 0.15 mM after 30 mins
[14] = molecular target: T2, Mushroom tyrosinase (Agaricus bisporus); experiment: Competitive inhibition of Agaricus bisporus tyrosinase assessed as reduction in diphenolase activity by measuring L-DOPA oxidation at 1.6 mM after 30 mins UV-visible specroscopy
[15] = test system: CCOc1ccc(/C=N/NC(N)=S)cc1; experiment: (§1) Inhibition of Agaricus bisporus tyrosinase assessed as reduction in diphenolase activity by measuring apparent Km for L-DOPA oxidation at 1.6 mM after 30 mins by Lineweaver-Burk plot
[16] = test system: COc1cc(/C=N/NC(N)=S)ccc1O; experiment: as §1
COc1ccc(/C=N/NC(N)=S)cc1 [17] = experiment: as §1
NC(=S)N/N=C/c1ccc(Br)cc1 [18] = experiment: as §1
NC(=S)N/N=C/c1ccc(Cl)cc1 [19] = experiment: as §1
[20] = test system: NC(=S)N/N=C/c1ccc(NC(=S)N/N=C/c2ccccn2)cc1; experiment: as §1
NC(=S)N/N=C/c1ccc(O)cc1 [21] = experiment: as §1
NC(=S)N/N=C/c1ccccc1 [22] = experiment: as §1
[23] = test system: CCOc1ccc(/C=N/NC(N)=S)cc1; experiment: (§2) Inhibition of Agaricus bisporus tyrosinase assessed as reduction in diphenolase activity by measuring Vmax for L-DOPA oxidation at 1.6 mM after 30 mins by Lineweaver-Burk plot
[24] = test system: COc1cc(/C=N/NC(N)=S)ccc1O; experiment: as §2
COc1ccc(/C=N/NC(N)=S)cc1 [25] = experiment: as §2
NC(=S)N/N=C/c1ccc(Br)cc1 [26] = experiment: as §2
NC(=S)N/N=C/c1ccc(Cl)cc1 [27] = experiment: as §2
[28] = test system: NC(=S)N/N=C/c1ccc(NC(=S)N/N=C/c2ccccn2)cc1; experiment: as §2
NC(=S)N/N=C/c1ccc(O)cc1 [29] = experiment: as §2
NC(=S)N/N=C/c1ccccc1 [30] = experiment: as §2

Sequence of Mushroom tyrosinase (Agaricus bisporus) (from UniProt O42713+Q00024+C7FF04+C7FF05) (C7FF05 whole entry, looked up): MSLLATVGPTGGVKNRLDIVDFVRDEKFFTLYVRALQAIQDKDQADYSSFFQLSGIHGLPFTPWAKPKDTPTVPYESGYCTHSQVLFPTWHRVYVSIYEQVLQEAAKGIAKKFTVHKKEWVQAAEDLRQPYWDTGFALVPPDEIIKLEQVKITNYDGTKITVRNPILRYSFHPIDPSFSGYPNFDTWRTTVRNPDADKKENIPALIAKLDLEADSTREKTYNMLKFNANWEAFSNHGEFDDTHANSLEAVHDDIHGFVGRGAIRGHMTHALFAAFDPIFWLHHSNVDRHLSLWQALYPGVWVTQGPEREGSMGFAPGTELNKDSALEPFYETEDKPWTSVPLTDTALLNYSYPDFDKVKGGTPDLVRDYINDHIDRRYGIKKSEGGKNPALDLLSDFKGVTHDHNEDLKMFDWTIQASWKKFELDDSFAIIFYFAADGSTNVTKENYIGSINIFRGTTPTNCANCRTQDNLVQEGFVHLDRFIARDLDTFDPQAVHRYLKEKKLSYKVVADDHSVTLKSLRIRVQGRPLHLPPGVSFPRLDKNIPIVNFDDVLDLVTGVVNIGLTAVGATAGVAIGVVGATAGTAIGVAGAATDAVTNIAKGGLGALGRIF
Sequence of Mushroom tyrosinase (Agaricus bisporus) (from UniProt O42713+Q00024+C7FF04+C7FF05) (C7FF04 whole entry, looked up): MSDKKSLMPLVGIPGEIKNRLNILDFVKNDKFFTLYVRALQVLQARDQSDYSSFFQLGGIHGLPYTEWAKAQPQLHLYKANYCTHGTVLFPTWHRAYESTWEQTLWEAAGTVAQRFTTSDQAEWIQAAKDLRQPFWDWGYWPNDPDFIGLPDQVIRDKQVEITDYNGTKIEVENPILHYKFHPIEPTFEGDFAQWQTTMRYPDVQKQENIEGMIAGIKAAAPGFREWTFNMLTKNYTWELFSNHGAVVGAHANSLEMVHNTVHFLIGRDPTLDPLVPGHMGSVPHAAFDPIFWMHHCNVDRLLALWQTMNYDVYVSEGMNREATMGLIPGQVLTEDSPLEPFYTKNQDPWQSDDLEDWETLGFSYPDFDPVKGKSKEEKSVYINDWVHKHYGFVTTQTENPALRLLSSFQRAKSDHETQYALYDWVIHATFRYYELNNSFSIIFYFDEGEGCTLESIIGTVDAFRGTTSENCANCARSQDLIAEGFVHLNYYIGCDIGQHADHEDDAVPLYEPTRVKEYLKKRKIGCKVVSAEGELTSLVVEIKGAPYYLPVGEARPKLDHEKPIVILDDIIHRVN
Sequence of Mushroom tyrosinase (Agaricus bisporus) (from UniProt O42713+Q00024+C7FF04+C7FF05) (Q00024 whole entry, looked up): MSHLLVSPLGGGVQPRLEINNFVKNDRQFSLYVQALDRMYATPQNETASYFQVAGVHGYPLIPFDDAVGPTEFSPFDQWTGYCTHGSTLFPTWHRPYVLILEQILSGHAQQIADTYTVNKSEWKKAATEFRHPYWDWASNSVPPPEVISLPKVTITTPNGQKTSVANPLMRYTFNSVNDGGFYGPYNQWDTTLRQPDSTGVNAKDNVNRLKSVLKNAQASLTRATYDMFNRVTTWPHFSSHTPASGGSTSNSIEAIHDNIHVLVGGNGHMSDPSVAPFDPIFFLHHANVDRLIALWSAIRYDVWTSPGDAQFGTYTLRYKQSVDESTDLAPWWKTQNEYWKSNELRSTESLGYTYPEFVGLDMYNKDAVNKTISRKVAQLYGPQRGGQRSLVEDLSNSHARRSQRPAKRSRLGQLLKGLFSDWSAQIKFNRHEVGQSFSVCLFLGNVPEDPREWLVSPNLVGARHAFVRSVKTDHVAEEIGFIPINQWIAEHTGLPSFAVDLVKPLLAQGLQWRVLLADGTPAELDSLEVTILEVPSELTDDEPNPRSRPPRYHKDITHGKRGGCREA
Sequence of Mushroom tyrosinase (Agaricus bisporus) (from UniProt O42713+Q00024+C7FF04+C7FF05) (O42713 whole entry, looked up): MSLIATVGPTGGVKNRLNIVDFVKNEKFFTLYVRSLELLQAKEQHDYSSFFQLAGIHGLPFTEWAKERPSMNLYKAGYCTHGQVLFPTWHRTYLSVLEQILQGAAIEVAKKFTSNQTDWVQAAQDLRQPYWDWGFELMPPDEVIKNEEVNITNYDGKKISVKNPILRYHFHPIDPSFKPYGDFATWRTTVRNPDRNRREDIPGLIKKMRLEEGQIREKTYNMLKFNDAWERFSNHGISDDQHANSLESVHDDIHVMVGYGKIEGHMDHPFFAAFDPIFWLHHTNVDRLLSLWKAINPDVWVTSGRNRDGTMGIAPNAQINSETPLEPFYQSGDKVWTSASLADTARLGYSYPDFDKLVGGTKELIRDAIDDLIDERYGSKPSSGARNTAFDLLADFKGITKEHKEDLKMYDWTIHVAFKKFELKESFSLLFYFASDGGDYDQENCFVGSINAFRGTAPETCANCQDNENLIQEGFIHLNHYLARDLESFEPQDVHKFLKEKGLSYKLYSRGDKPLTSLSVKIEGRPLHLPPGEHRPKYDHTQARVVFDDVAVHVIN

IC50 (Mushroom tyrosinase [1]): 1420 µM
Ki (Mushroom tyrosinase [2]): 600 µM
inhibition [3]: Active
Molecule: NC(=S)N/N=C/c1ccc(Br)cc1

inhibition [3]: Active
Molecule: NC(=S)N/N=C/c1ccc(O)cc1

IC50 (Mushroom tyrosinase [1]): 360 µM
Ki (Mushroom tyrosinase [4]): 60 µM
inhibition [3]: Active
Molecule: CCOc1ccc(/C=N/NC(N)=S)cc1

IC50 (Mushroom tyrosinase [1]): 820 µM
Ki (Mushroom tyrosinase [5]): 4500 µM
inhibition [3]: Active
Molecule: NC(=S)N/N=C/c1ccccc1 [PHENYLTHIOSEMICARBAZONE]

IC50 (Mushroom tyrosinase [1]): 840 µM
Ki (Mushroom tyrosinase [4]): 1300 µM
Molecule: NC(=S)N/N=C/c1ccc(Cl)cc1

IC50 (Mushroom tyrosinase [1]): 440 µM
Ki (Mushroom tyrosinase [4]): 50 µM
inhibition [3]: Active
Molecule: COc1ccc(/C=N/NC(N)=S)cc1

IC50 (Mushroom tyrosinase [1]): 350 µM
inhibition [6]: 93.8%
inhibition [7]: 94.6%
inhibition [8]: 92.8%
inhibition [9]: 89.2%
inhibition [10]: 79.2%
inhibition [11]: 59.3%
inhibition [12]: 45.7%
inhibition [13]: 24%
Ki (Mushroom tyrosinase [4]): 60 µM
inhibition [14]: Active
inhibition [3]: Active
Molecule: COc1cc(/C=N/NC(N)=S)ccc1O

IC50 (Mushroom tyrosinase [1]): 1190 µM
Ki (Mushroom tyrosinase [4]): 200 µM
inhibition [3]: Active
Molecule: NC(=S)N/N=C/c1ccc(NC(=S)N/N=C/c2ccccn2)cc1

Molecule: Mushroom tyrosinase (Agaricus bisporus) (from UniProt O42713+Q00024+C7FF04+C7FF05)
Km [15]: 21.7 mM
Km [16]: 22.4 mM
Km (COc1ccc(/C=N/NC(N)=S)cc1 [17]): 26.3 mM
Km (NC(=S)N/N=C/c1ccc(Br)cc1 [18]): 0.5 mM
Km (NC(=S)N/N=C/c1ccc(Cl)cc1 [19]): 1.9 mM
Km [20]: 8.3 mM
Km (NC(=S)N/N=C/c1ccc(O)cc1 [21]): 0.7 mM
Km (NC(=S)N/N=C/c1ccccc1 [22]): 0.8 mM
Vmax [23]: 38.4 mM/min
Vmax [24]: 48.1 mM/min
Vmax (COc1ccc(/C=N/NC(N)=S)cc1 [25]): 34.8 mM/min
Vmax (NC(=S)N/N=C/c1ccc(Br)cc1 [26]): 16.6 mM/min
Vmax (NC(=S)N/N=C/c1ccc(Cl)cc1 [27]): 39.7 mM/min
Vmax [28]: 27.1 mM/min
Vmax (NC(=S)N/N=C/c1ccc(O)cc1 [29]): 9.5 mM/min
Vmax (NC(=S)N/N=C/c1ccccc1 [30]): 18.9 mM/min
